Target: T1, proton-activated Cl− channel (PAC) (Rattus norvegicus, UniProt Q66H28)
T1 construct: gene Pacc1
Experiment: whole-cell patch clamp of native IPAC in GH3 cells, pH […], single concentration […]
Assay type: cell-based

T1 sequence (Q66H28 whole entry): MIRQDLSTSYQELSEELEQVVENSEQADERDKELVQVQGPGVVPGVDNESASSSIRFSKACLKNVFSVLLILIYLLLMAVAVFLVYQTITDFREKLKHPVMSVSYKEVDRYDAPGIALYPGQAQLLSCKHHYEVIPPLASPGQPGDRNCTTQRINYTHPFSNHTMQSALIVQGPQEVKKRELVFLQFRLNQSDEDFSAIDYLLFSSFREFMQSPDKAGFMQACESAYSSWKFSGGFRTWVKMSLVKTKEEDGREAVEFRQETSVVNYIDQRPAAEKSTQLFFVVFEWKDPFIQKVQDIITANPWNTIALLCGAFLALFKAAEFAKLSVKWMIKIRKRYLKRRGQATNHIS

CCCCC1(C2CCCC2)Cc2cc(OCCCC(=O)O)c(Cl)c(Cl)c2C1=O (stereo not shown) [DCPIB, 4-[(2-Butyl-6,7-dichloro-2-cyclopentyl-2,3-dihydro-1-oxo-1H-inden-5yl)oxy] butanoic acid]
inhibition at 10 µM: 51%
